Assays:
[1] = molecular target: T1, ATP1A1 (Homo sapiens, UniProt P05023); experiment: RSV-induced ATP1A1 clustering in A549 cells by confocal immunofluorescence; format: cell-based; settings: A549 treated overnight, RSV MOI=5 PFU/cell, 5 hours
T1 construct: ATP1A1 being expressed ubiquitously and being the predominant isoform expressed in A549 cells; endogenous in cells; host or cells: A549 cells (ATCC CCL-185)
From the text: Whether PST2238 treatment had any effect on the clustering of ATP1A1 and RSV proteins was also investigated.
Immunofluorescence microscopy.

[2] = including 5 mg twice a day for a week and 0.5 mg per day for three months; cited from earlier work
[3] = adducin- and ouabain-induced forms of hypertension; normal systolic blood pressure of healthy individuals not lowered; cited from earlier work
[4] = system: RSV; experiment: Preliminary studies of RSV infection with an inhibitor of clathrin-mediated endocytosis; format: cell-based, human respiratory syncytial virus (RSV); settings: non-toxic concentrations
[5] = system: RSV-GFP; experiment: RSV-GFP infection of A549 cells, GFP intensity of total well by ELISA reader; settings: discussion statement
Protocol: Quantification of RSV infection by viral expressed GFP. For the evaluation of RSV infection, RSV-GFP, a recombinantly derived virus that expresses enhanced green fluorescent protein (eGFP) from an additional gene inserted between the P and M genes, was used. SiRNA transfected or pre-treated A549 cells, seeded in a 12-well plate, were inoculated with an MOI of 1.0 PFU/cell. Inoculum was adsorbed for 2 h by incubating on a rocking platform at 37° C., after which the inoculum was washed off and replaced with fresh media. The infected cells were incubated for 17 h at 37° C. and 5% CO2 and the infectivity was evaluated by quantifying GFP either by ELISA reader or flow cytometry. For the ELISA reader quantification, the GFP intensity of the infected monolayer was quantified by an area scan (average GFP intensity of 29 individual measurements per well) on a Synergy 2 ELISA reader (BioTek). […] For the flow cytometry based GFP quantification, the cells were detached with 1 mM EDTA, stained with LIVE/DEAD fixable dead cell staining kit (Life Technologies), and fixed with 4% paraformaldehyde (PFA, Electron Microscopy Science, PA). The GFP intensities of single, live cells were analyzed on a Canto II flow cytometer (BD Biosciences, Franklin Lakes, N.J.).

[6] = system: EGFR Tyr845; experiment: EGFR phosphorylation array (pTyr845) in A549 cells; settings: without RSV infection
Protocol: A549 cells were treated as indicated (either siRNA knock down for 48 h or pre-treatment with the chemical compounds ouabain [25 n1\4], PST2238 [40 μM] or Src Inhibitor-I (SrcI-I) [6.25 μM] and PP2 [12.5 μM] for 5 h pre-inoculation). Cells were serum starved overnight, before they were inoculated with wt RSV (MOI=5 PFU/cell) and incubated at 37° C. Cells were lysed 5 h p.i. and subjected to a phospho-specific EGFR array (RayBiotech, Inc.). (FIG. 8A) Representative array spots of pTyr845 EGFR and its corresponding pan EGFR for each treatment are shown. […] (FIG. 8D) As control, PST2238 or Ouabain pretreated A549 cells were stimulated with EGF (100 ng/ml) for 45 min and the pTyr845 EGFR signal was quantified. The statistical significance of the differences were determined by one-way analysis of variance with Dunnett multiple-comparison test and the significance p-values are indicated for each comparison. […]
Quantification of EGFR phosphorylation. […] The protein concentration of the lysate was quantified by bicinchoninic acid (BCA) assay (Thermo Fisher Scientific) and lysate containing 150 μg total protein was used for each array. […] The light emission of the array spots was detected by exposure to X-ray films. The films were scanned and the intensity values of each spot were quantified by ImageQuant TL (Array Version 8.1, GE Healthcare). […]

Structure (SMILES): C[C@]12CC[C@H](O)C[C@H]1CC[C@@H]1[C@@H]2CC[C@]2(C)[C@@](O)(c3ccoc3)CC[C@]12O [PST2238, (3β,5β,14β)-21,23-Epoxy-24-norchola-20,22-diene-3,14,17-triol]
- effect on the clustering of ATP1A1 [1]: no apparent effect
- toxicity in human and animal models [2]: non-toxic
- effect on blood pressure [3]: lowers the blood pressure

Structure (SMILES): CN(C)CCCN1c2ccccc2Sc2ccc(Cl)cc21 [chlorpromazine]
- effects on RSV infection [4]: did not detect effects

Structure (SMILES): C[C@@H]1O[C@@H](O[C@H]2C[C@@H](O)[C@]3(CO)[C@@H]4[C@@H](CC[C@]3(O)C2)[C@@]2(O)CCC(C3=CC(=O)OC3)[C@@]2(C)C[C@@H]4O)[C@H](O)[C@H](O)[C@H]1O (stereo partly drawn) [ouabain, (1β,3β,5β,11α)-3-[(6-Deoxy-α-L-mannopyranosyl)oxy]-1,5,11,14,19-pentahydroxycard-20(22)-enolide]
- concentrations at which inhibition of RSV infection was achieved [5]: sub-nanomolar
- detection of phosphorylation of EGFR Tyr845 following treatment with compound alone [6]: not following treatment with ouabain

Source: patent publication US11337988B2, “Use of ouabain antagonists to inhibit viral infection” (priority 2018, dated 2022)
